The numbers were not newly measured in US10028927B2, “Topical pharmaceutical formulation” (Futura Medical Developments Limited, priority 2015, dated 2018), which cites them from elsewhere.

Structures can show the parent of a compound that is named as a salt.

The conditions of data set [1]: saturated systems in polyethylene glycol and propylene glycol.
The conditions of data set [2]: in vivo.

For `O=C(O)Cc1ccccc1Nc1c(Cl)cccc1Cl` [diclofenac acid], in data set [1], the “diclofenac flux, polyethylene glycol versus propylene glycol systems” value was “no significant difference”. Moreover, the “saturated solubility in polyethylene glycol” value (polyethylene glycol) was 11.18 % w/w. Further, the “saturated solubilities in propanol or iso-propanol” value (propanol or iso-propanol) was 3-4%. For the same compound, the “saturated solubility in pure ethanol” value (pure ethanol) is given as 5 % w/w.

On to `O=C(O)Cc1ccccc1Nc1c(Cl)cccc1Cl` [diclofenac], for which the “systemic clearance compared with other drugs” value in data set [2] was “more rapid systemic clearance compared with other drugs”.

With `O=C(O)Cc1ccccc1Nc1c(Cl)cccc1Cl` [sodium salt of diclofenac acid, diclofenac sodium], the “saturated solubility in propylene glycol” value (propylene glycol) was “approximately 50 % w/w”.
